From US20110245323A1, “RIG-Like Helicase Innate Immunity Inhibits VEGF-Induced Tissue Responses” (Yale University, priority 2006, published 2011) come the findings set out here.

Holding throughout (assay type): in vivo, mouse
The subject of assay [1] is CC10-rtTA-VEGF165 transgenic mice. Briefly: VEGF-induced mucus metaplasia (PAS staining, BAL MUC5AC). To be noted: for VEGF-induced mucus metaplasia (PAS stains, BAL MUC5AC accumulation): vs vehicle. As for the experimental part:
(§1) To define the effects of Poly(I:C) a number of protocols were employed. In most experiments, a pretreatment-2 week protocol was employed. In these experiments, WT and Tg+ mice were treated with Poly(I:C) (30 μg in 50 lambda unless otherwise indicated; Amersham Biosciences, N.J.) or vehicle control via nasal aspiration and transgene activation was accomplished via the administration of dox (0.5 mg/ml) in the animal's drinking water 24 hours later. The Poly(I:C) was administered every other day and the dox was administered continuously for up to 2 weeks.
(§2) Lastly, in selected experiments post-transgene activation protocols were employed. In these experiments dox was administered for 2 days or 2 weeks. The Poly(I:C) was then administered via intranasal aspiration every other day for 2 weeks as disclosed elsewhere herein. In selected pre-treatment and post-transgene activation experiments, unmethylated CpG (CpG-B) (Keck Center, Yale University) was also employed at similar doses. At the end of these intervals, assessments of angiogenesis (anti-CD31 immunohistochemistry), vascular permeability (Evan's blue dye extravasation, wet to dry lung weight measurements, BAL protein concentration), BAL and tissue inflammatory cell infiltration and mucus metaplasia (periodic acid-Schiff (PAS) staining, MUC5AC immunoblotting) were undertaken. In all cases experiments were designed to compare Tg− and Tg+ mice on normal water and Tg− and Tg+ mice on dox water.
The lungs were removed en bloc as described elsewhere herein, inflated at 25 cm pressure with PBS containing 0.5% low melting point agarose gel, fixed in Streck solution (Streck Laboratories, La Vista, Nebr.), embedded in paraffin, sectioned and stained. Hematoxylin and eosin and PAS stains were performed in the Research Histology Laboratory of the Department of Pathology at the Yale University School of Medicine. Pulmonary hemorrhage was evaluated by quantitating BAL red blood cell number with a Coulter counter (Beckman Coulter).
The levels of MUC5AC, the major airway mucin in BAL fluids, were assessed as previously described (Lee et al., 2008, Am J Respir Cell Mol Biol 39:739-746). In these evaluations, 0.1 ml of BAL fluid was slot blotted onto nitrocellulose membranes using a Minifold II slot blot apparatus (Schleicher & Schuell). After air-drying, the membrane was blocked with 5% skim milk, washed three times and incubated overnight at 4° C. with a monoclonal antibody against Mucin-5AC (45M1; NeoMarkers, Union City, Calif.). After washing, the membranes were incubated for 1 hour at room temperature with horseradish peroxidase-conjugated anti-mouse immunoglobulin (Ig)-G (Pierce). Immunoreactive mucins were detected using a chemiluminescent procedure (ECL Plus Western blotting detection system, Amersham Biosciences) according to instructions from the manufacturer.

In assay [2] the test system is VEGFR2. Briefly: VEGF receptor expression on dendritic and endothelial cells, FACS. Conditions: Tg+ mice, pretreatment-2 week protocol. As for the experimental part: (§3) Cell preparations were obtained from Tg− and Tg+ mice that had been randomized to receive Poly(I:C) or its vehicle control according to the pretreatment-2 week protocol described above. They were then incubated with antibodies against CD45, CD11c, MHCII, CD31, VEGFR1 (R & D Systems), VEGFR2 (Biolegends, San Diego, Calif. USA) or VEGFR3 (R&D Systems). FACS analysis was used to define the levels of receptor expression on dendritic cells (CD45+, CD11c+, MHCII+) and endothelial cells (CD45−, CD31+).

In assay [3] the test system is VEGFR1. The assay is described as above. Conditions: Tg+ mice, pretreatment-2 week protocol. As for the experimental part:
as §3

In assay [4] the test system is VEGFR3. The description is as above. To be noted: Tg+ mice, pretreatment-2 week protocol. As for the experimental part: as §3
Assay [5] has as its system CC10-rtTA-VEGF165 transgenic mice. The assay is described as follows: VEGF-induced angiogenesis, anti-CD31 immunohistochemistry and vessel area density. Conditions: for VEGF-induced angiogenesis (vascular density, appearance, sprouting): pretreatment starting 1 day before dox, vs vehicle. As for the experimental part:
The CC10-rtTA-VEGF165 transgenic mice used in this study were generated and used as described previously (Lee et al., 2004, Nature Medicine 10:1095-103), which reference is incorporated herein in its entirety. These animals were housed under barrier conditions in the animal facility at Yale University School of Medicine. In these experiments 6-8 week old transgenic (Tg+) animals and their transgene negative littermate controls (Tg−) were randomized to receive water with doxycycline (dox) (0.5 mg/ml) or normal water. Two weeks later they were sacrificed and the VEGF-induced phenotype was evaluated as described below (Lee et al., 2004, Nature Medicine 10:1095-103).
To define the effects of these agents on the tissue responses induced by VEGF, two experimental procedures were used. In the first, a pretreatment protocol was used. In these experiments the noted innate immunity agonist ([…] unless otherwise indicated) or its vehicle control (PBS) were administered intranasally and aspirated into the lungs of randomized Tg+ and Tg− mice starting one day before the Dox water treatment. The doses were administered to the mice every other day during the 2 week doxyxycline (dox) treatment interval.
To determine if the innate immunity agonists altered established VEGF-induced tissue responses, a “post treatment” protocol was used in selected experiments. In these experiments the innate immunity agonist was administered 2 days or 14 days after the doxycycline and VEGF-induced responses were evaluated 2 weeks later.
as §1
In selected experiments a pretreatment protocol and shorter treatment interval was employed. In these experiments, WT and Tg+ mice were treated with Poly(I:C) (30 μg/mouse/dose in 50 μl) or vehicle control via nasal aspiration and transgene activation was accomplished with dox 24 hours later. The animals were then randomized to not receive or receive one additional dose of Poly(I:C) 24 hours later and dox was administered continuously during this 2 week interval.
as §2

Assay [6] concerns PKR. Briefly: Poly(I:C) regulation of VEGF responses in PKR null VEGF Tg+ mice. To be noted: angiogenesis and dye extravasation.
Excerpt: TLR3^−/−-mice were a gift from Dr. Richard A. Flavell (Yale University), MAVS null mice were a gift from Dr Zijian J. Chen (U of Texas Southwestern) (Sun et al., 2006, Immunity 24:633-642), double stranded RNA-dependent protein kinase null mutant mice (PKR^−/−) were a gift from Dr. Bryan R. G. Williams (Cleveland Clinic Foundation) (Yang et al., 1995, Embo J 14:6095-6106) and IFNAR1 null mice were obtained from Dr. Richard Enelow (Dartmouth). These mice were bred with the VEGF Tg+ mice to generate transgenic mice with wild type (+/+) or null (−/−) TLR3, MAVS, PKR or IFNAR1 loci. Thus, in each given experiment, the effects in transgene negative (Tg−) and transgenic (Tg+) mice with WT and null TLR3, MAVS, PKR or IFNAR1 loci were compared.
as §1

[7] abbreviates: pretreatment, highest dose tested.

Entries after “also recorded” stand apart in the source; their conditions may differ.

For the substance “polyinosinic-polycytidylic acid [Poly(I:C)]”, the VEGF-stimulated mucus secretion entry in assay [1] (Tg+ mice, pretreatment) is reported as “decreased”. In addition, the “VEGF-induced mucus metaplasia (PAS stains, BAL MUC5AC accumulation)” value is given as “inhibited” in assay [1] (Tg+ mice, pretreatment) and “significantly decreased” in assay [1] (Tg+ mice, pretreatment, listed as poly(I:C)). For the same substance, in assay [1] (given 48 hours or 14 days after dox-induced transgene activation), the “VEGF-induced mucus metaplasia, delayed administration” value is given as “significant inhibition”. In addition, the “lowest dose with significant inhibition of VEGF-induced mucus metaplasia” value in assay [1] (pretreatment) was 5 µg. In assay [1] (setting [7]), the “dose with maximal inhibition of VEGF-induced mucus metaplasia” value amounted to 30 µg. For the same substance, the “expression of VEGFR2 on dendritic cells and endothelial cells” value in assay [2] is given as “not”. Also, the “expression of VEGFR1 on dendritic cells and endothelial cells” value in assay [3] is listed as “inhibited”. Besides, in assay [4], the “expression of VEGFR3 on dendritic cells and endothelial cells” value is recorded as “not”. The “VEGF-induced vascular responses, delayed administration” value in assay [5] (Tg+ mice, given 2 days (48 hours) or 14 days (2 weeks) after transgene activation with dox) was “significant decrease; also recorded: significant inhibition”. Also, the “VEGF-induced angiogenesis (vascular density, appearance, sprouting)” value in assay [5] (Tg+ mice) is given as “inhibited”; in assay [5] (Tg+ mice, listed as poly(I:C)), “markedly decreased”. Further, the “Vascularity (%)” value in assay [5] (VEGF-induced tissue responses, TLR agonist administration, PBS control 43) was found to be 28.7%. In addition, the “lowest dose with significant inhibition of VEGF-induced angiogenesis” value in assay [5] (pretreatment) came out at 5 µg. For the same substance, the “dose with maximal inhibition of VEGF-induced angiogenesis” value in assay [5] (setting [7]) was found to be 30 µg. Besides, the “vascular density after as little as 1 dose” value in assay [5] (shorter treatment interval, 1 dose before dox) is reported as “significant decrease”. Besides, the “effects of Poly(I:C) in PKR null mice” value in assay [6] is “not significantly altered”.
